Source: US20250034216A1, “STEREOSELECTIVE COVALENT LIGANDS FOR ONCOGENIC AND IMMUNOLOGICAL PROTEINS” (The Scripps Research Institute, priority 2021, published 2025)

Biological target: T1, ANGEL1_C27 (Homo sapiens, UniProt Q9UNK9)
T1 construct: endogenous in cells; host or cells: 22Rv1
T1 sequence (Q9UNK9 1-670): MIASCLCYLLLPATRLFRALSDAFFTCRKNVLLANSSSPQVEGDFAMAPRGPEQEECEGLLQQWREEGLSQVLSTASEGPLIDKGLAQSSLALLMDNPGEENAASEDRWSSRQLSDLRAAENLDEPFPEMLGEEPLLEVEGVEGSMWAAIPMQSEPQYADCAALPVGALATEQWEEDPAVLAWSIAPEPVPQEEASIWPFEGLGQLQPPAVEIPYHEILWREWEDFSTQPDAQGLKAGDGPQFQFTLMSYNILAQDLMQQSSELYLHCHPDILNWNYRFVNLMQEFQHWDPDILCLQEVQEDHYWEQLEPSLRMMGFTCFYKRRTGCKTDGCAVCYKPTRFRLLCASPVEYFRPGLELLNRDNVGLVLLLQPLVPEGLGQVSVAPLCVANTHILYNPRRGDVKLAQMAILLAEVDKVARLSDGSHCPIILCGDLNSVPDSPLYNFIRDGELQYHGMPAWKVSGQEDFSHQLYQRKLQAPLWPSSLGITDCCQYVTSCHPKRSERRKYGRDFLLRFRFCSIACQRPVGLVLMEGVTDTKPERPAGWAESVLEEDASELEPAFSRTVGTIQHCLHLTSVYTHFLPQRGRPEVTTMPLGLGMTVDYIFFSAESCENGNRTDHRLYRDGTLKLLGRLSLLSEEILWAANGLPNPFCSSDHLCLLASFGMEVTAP
Experiment: IA-DTB cysteine engagement
Type: binding
Details: 22Rv1 cells, 20 μM probe, 1 h, relative to DMSO
In short: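 In-situ probe treatment of cells; lysate 2 mg/mL, IA-DTB 1 h RT; MeOH/CHCl3 precipitation, DTT/iodoacetamide, trypsin; streptavidin enrichment; TMT labeling, high-pH fractionation. Ratio = TMT reporter intensity / mean DMSO channels, median-normalized.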

| % engagement ANGEL1_C27 [%] | SMILES |
| --- | --- |
| 54.5 | C=CC(=O)N1C[C@H](c2ccc(Br)cc2)[C@H]1C(=O)Nc1cccc2cccnc12 [MY-3B, (2S,3S)-1-acryloyl-3-(4-bromophenyl)-N-(quinolin-8-yl)azetidine-2-carboxamide] |
| 66.5 | C=CC(=O)N1C[C@H](c2ccc(Br)cc2)[C@@H]1C(=O)Nc1cccc2cccnc12 [MY-1B, (2R,3S)-1-acryloyl-3-(4-bromophenyl)-N-(quinolin-8-yl)azetidine-2-carboxamide] |
| 45.5 | C=CC(=O)N1C[C@H](c2ccc(Br)cc2)[C@H]1C(=O)Nc1cccc2cccnc12 [MY-3A, (2S,3S)-1-acryloyl-3-(4-bromophenyl)-N-(quinolin-8-yl)azetidine-2-carboxamide] |
| 63 | C=CC(=O)N1C[C@@H](c2ccc(Br)cc2)[C@H]1C(=O)Nc1cccc2cccnc12 [MY-1A, (2S,3R)-1-acryloyl-3-(4-bromophenyl)-N-(quinolin-8-yl)azetidine-2-carboxamide] |
